Experimental data published in PMC9412104, “Biochemical and Structural Insights on the Poplar Tau Glutathione Transferase GSTU19 and 20 Paralogs Binding Flavonoids” (Frontiers in Molecular Biosciences, 2022).
Where two headings read alike, the source gives them in different places. Values belong to the compound of their own block, whether it stands above or below them.

How the values were obtained:
[1] = target: T1, PtGSTU19 (Populus trichocarpa, UniProt B9HKX9); experiment: Thermal shift assay (SYPRO orange); assay type: binding
Procedure: (§1) Assays were performed in a mixture (final volume of 25 µL) containing 30 mM Tris-HCl pH 8.0, 100 µM of chemical compounds (diluted in 8% DMSO) originating from a chemical library (Supplementary Tables S2, S3), 20 µM of PtGSTU19 or 20, and 5X SYPRO orange. […] The denaturation temperature, which corresponds to the temperature at which 50% of the total fluorescence is measured, was determined by the nonlinear regression Boltzmann sigmoidal model in GraphPad Prism 8 software for data obtained in the presence of potential ligands. This temperature was compared with a reference assay in which organic compounds were replaced by an equivalent DMSO concentration.

[2] = target: T2, PtGSTU20 (Populus trichocarpa, UniProt D2X9R3); experiment: Thermal shift assay (SYPRO orange); assay type: binding
Procedure: as §1

[3] = target: T1, PtGSTU19; experiment: GSH-conjugation activity toward model substrates
[4] = target: T2, PtGSTU20; experiment: GSH-conjugation activity toward model substrates
[5] = target: T1, PtGSTU19; experiment: Competition (inhibition) assay of GSH-conjugation with PITC as substrate; assay type: biochemical
Procedure: (§2) The measured velocities were corrected by subtracting the rate of the spontaneous nonenzymatic reaction, and three independent experiments were performed at each substrate concentration. The kinetic parameters (k cat and apparent K m) and the inhibition constants (K i) were, respectively, obtained by fitting the data to the nonlinear regression Michaelis–Menten model (kinetic assays) and to the mixed inhibition model (inhibition assays) in GraphPad Prism 8 software ([Copeland, 2013]).

[6] = target: T2, PtGSTU20; experiment: as above; assay type: biochemical
Procedure: as §2

[7] = target: T1, PtGSTU19; experiment: Peroxidase activity, NADPH coupled spectrophotometric assay; assay type: biochemical; conditions: for Peroxidase activity (active on the peroxide): enzyme concentration increased up to 10 µM
Procedure: (§3) Peroxidase activity toward hydroperoxides was measured using an NADPH coupled spectrophotometric assay ([Pégeot et al., 2014]).
as §2

[8] = target: T2, PtGSTU20; experiment: as above; assay type: biochemical; conditions: for Peroxidase activity (active on the peroxide): enzyme concentration increased up to 10 µM
Procedure: as §3, §2

[9] = target: PtGSTU19Y160A (Populus trichocarpa, UniProt B9HKX9, Y160A); conditions: PtGSTU19 Y160A, peroxidase activity, mean ± S.D., n = 3
Procedure: as §3
(§4) The measured velocities were corrected by subtracting the rate of the spontaneous nonenzymatic reaction, and three independent experiments were performed at each substrate concentration.

[10] = target: PtGSTU19Y160C (Populus trichocarpa, UniProt B9HKX9, Y160C); conditions: PtGSTU19 Y160C, peroxidase activity, mean ± S.D., n = 3
Procedure: as §3, §4

[11] = target: PtGSTU19Y160F (Populus trichocarpa, UniProt B9HKX9, Y160F); conditions: PtGSTU19 Y160F, peroxidase activity, mean ± S.D., n = 3
Procedure: as §3, §4

[12] = target: PtGSTU20C160Y (Populus trichocarpa, UniProt D2X9R3, C160Y); conditions: PtGSTU19 C160Y in Table S4, peroxidase activity, mean ± S.D., n = 3
Procedure: as §3, §4

[13] = read-out: ΔTd (denaturation temperature difference)
[14] = PtGSTU19, 25°C, fixed 1 mM GSH (0.7 mM with HNE), mean ± S.D., n = 3
[15] = PtGSTU20 20 µM, compound 100 µM, vs DMSO reference, flavonoid set (Table S3, Figure 4), read-out: ΔTd (denaturation temperature difference)
[16] = peroxidase activity, 1 mM GSH, pH 8.0, mean ± S.D., n = 3
[17] = read-out: apparent K m, peroxidase activity, 1 mM GSH, pH 8.0, mean ± S.D., n = 3
[18] = read-out: ΔTd (denaturation temperature difference), PtGSTU19 20 µM, compound 100 µM, vs DMSO reference, flavonoid set (Table S3, Figure 4)
[19] = read-out: ΔTd (denaturation temperature difference), PtGSTU19 apo form 20 µM, compound 100 µM, vs DMSO reference, first chemical library screen (Table S2, Figure S9)
[20] = read-out: ΔTd (denaturation temperature difference), PtGSTU20 20 µM, compound 100 µM, vs DMSO reference, flavonoid set (Table S3, Figure 4)
[21] = read-out: ΔTd (denaturation temperature difference), PtGSTU20 apo form 20 µM, compound 100 µM, vs DMSO reference, first chemical library screen (Table S2, Figure S9)

T2 sequence (D2X9R3 entry or part of it): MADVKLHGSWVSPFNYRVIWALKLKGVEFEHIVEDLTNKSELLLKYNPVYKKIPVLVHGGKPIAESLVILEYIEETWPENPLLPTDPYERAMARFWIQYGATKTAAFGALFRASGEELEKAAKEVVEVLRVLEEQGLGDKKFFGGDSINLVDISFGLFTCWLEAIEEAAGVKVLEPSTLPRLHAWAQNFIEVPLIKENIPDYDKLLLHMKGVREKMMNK
T1 sequence (B9HKX9 entry or part of it): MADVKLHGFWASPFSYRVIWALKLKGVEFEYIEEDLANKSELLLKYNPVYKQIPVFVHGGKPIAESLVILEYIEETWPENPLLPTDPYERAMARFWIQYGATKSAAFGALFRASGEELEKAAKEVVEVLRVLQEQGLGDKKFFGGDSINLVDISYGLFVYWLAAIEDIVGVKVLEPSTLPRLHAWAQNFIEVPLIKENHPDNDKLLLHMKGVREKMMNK
PtGSTU19Y160A, sequence (B9HKX9 2-219 Y160A): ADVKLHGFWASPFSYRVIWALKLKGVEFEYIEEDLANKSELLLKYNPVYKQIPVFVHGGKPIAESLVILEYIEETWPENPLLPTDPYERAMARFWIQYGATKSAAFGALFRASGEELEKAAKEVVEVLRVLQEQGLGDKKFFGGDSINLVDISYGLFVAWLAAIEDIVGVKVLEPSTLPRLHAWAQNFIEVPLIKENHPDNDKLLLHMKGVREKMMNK
PtGSTU19Y160F, sequence (B9HKX9 2-219 Y160F): as the sequence (B9HKX9 2-219 Y160A) above, with A159F counted along it
PtGSTU19Y160C, sequence (B9HKX9 2-219 Y160C): as the sequence (B9HKX9 2-219 Y160A) above, with A159C counted along it
PtGSTU20C160Y, sequence (D2X9R3 2-219 C160Y): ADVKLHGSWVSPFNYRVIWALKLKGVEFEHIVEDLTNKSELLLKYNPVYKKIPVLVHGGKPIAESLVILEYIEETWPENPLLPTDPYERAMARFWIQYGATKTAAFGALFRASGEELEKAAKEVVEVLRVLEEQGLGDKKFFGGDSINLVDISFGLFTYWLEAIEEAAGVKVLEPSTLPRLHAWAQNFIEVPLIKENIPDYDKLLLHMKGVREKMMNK

Compound: O=c1c(O)c(-c2ccc(O)c(O)c2)oc2cc(O)cc(O)c12 [quercetin]
ΔTm at 100 µM [1, 13]: > 4 °C | ΔTm at 100 µM [2, 13]: > 4 °C

Compound: CCCC(=O)Oc1ccc([N+](=O)[O-])cc1 [PNP-butyrate, 4-nitrophenyl-butyrate]
Catalytic efficiency ([3]; PtGSTU19): 100 M⁻¹ s⁻¹ | k cat [3, 14]: 0.040 ± 0.001 s⁻¹ | k cat/K m [3, 14]: 0.100 ± 0.002 10^3 M^-1s^-1 | Catalytic efficiency [4]: 100 M⁻¹ s⁻¹ | k cat ([4]; 25°C, fixed 1 mM GSH (0.7 mM with HNE), mean ± S.D., n = 3): 0.020 ± 0.001 s⁻¹

Compound: oxidized glutathione [GSSG]
ΔTd (denaturation temperature difference) ([1]; PtGSTU19 apo form 20 µM, compound 100 µM, vs DMSO reference, first chemical library screen (Table S2, Figure S9)): little or no change | ΔTd (denaturation temperature difference) ([2]; PtGSTU20 apo form 20 µM, compound 100 µM, vs DMSO reference, first chemical library screen (Table S2, Figure S9)): little or no change

Compound: CC(C)(OO)c1ccccc1 [CuOOH, cumene hydroperoxide]
Peroxidase activity (active on the peroxide) [7]: weakly active | Catalytic efficiency ([7]; peroxidase activity): 800 M⁻¹ s⁻¹ | k cat [7, 16]: 0.17 ± 0.01 s⁻¹ | k cat/K m [7, 16]: 0.85 ± 0.04 10^3 M^-1s^-1 | Km [7, 17]: 197 ± 31.1 µM | Peroxidase activity (active on the peroxide) [8]: weakly active | Catalytic efficiency ([8]; peroxidase activity): 2400 M⁻¹ s⁻¹ | k cat [8, 16]: 0.24 ± 0.01 s⁻¹ | k cat/K m [8, 16]: 2.4 ± 0.1 10^3 M^-1s^-1 | Km [8, 17]: 98.6 ± 15.4 µM | k cat [9]: 0.33 ± 0.02 s⁻¹ | Km ([9]; read-out: apparent KM): 701 ± 82.7 µM | k cat [10]: 0.45 ± 0.03 s⁻¹ | Km ([10]; read-out: apparent KM): 1260 ± 140 µM | k cat [11]: 0.49 ± 0.01 s⁻¹ | Km ([11]; read-out: apparent KM): 347 ± 34.6 µM | k cat [12]: 0.14 ± 0.01 s⁻¹ | Km ([12]; read-out: apparent KM): 491 ± 97.5 µM

Compound: OO [H2O2, hydrogen peroxide]
Peroxidase activity (active on the peroxide) [7]: not | Peroxidase activity (active on the peroxide) [8]: not

Compound: CC(C)(C)OO [t-BOOH, tert-butyl hydroperoxide]
Peroxidase activity (active on the peroxide) [7]: not | Peroxidase activity (active on the peroxide) [8]: not

Other lines, results leading:

Ki ([5]; read-out: K i): 152 ± 13.5 µM | Ki ([6]; read-out: K i): 61.2 ± 10.5 µM | ΔTm at 100 µM ([1]; PtGSTU19 20 µM, compound 100 µM, vs DMSO reference, flavonoid set (Table S3, Figure 4), read-out: ΔTd (denaturation temperature difference)): -0.01 ± 0.12 °C | ΔTm at 100 µM [2, 15]: 1.68 °C
Compound: O=C1C[C@@H](c2ccccc2)Oc2cc(O)cc(O)c21 [Pinocembrin]

Ki [5]: 35.2 ± 2.8 µM | Ki [6]: 7.1 ± 0.6 µM | ΔTm at 100 µM [1, 18]: 0.73 ± 0.2 °C | ΔTm at 100 µM [1, 19]: > 4 °C | ΔTm at 100 µM [2, 20]: 3.4 °C | ΔTm at 100 µM [2, 21]: > 4 °C
Compound: O=c1cc(-c2ccccc2)oc2cc(O)c(O)c(O)c12 [Baicalein]

Ki [5]: 72.9 ± 5.3 µM | Ki [6]: 16 ± 0.9 µM | ΔTm at 100 µM [1, 18]: 0.37 ± 0.16 °C | ΔTm at 100 µM [1, 19]: > 4 °C | ΔTm at 100 µM [2, 20]: 4.36 °C | ΔTm at 100 µM [2, 21]: > 4 °C
Compound: O=c1c(O)c(-c2ccc(O)cc2O)oc2cc(O)cc(O)c12 [Morin]

ΔTm at 100 µM [2, 15]: 3.11 °C
Compound: O=C(CCc1ccc(O)cc1)c1c(O)cc(O)cc1O [phloretin]
